Tested on: tumor-associated pericytes and VEC
Assay: Day 60 splenic CD8+ T cell IFN-γ response in mice cured of B16 by vaccination
Type: cell-based, HHD mice
Conditions: 60 days after tumor inoculation, IFN-γ ELISA (FIG. 12)
Description: HHD mice bearing established day seven B16 melanomas were therapeutically vaccinated with peptides derived from the TASA DLK1 or RGS5 as described in FIG. 11B. Tumors regressed to a non-detectable level over the next two weeks. Sixty days after tumor inoculation, CD8^+ T cells were MACS-isolated from the spleens of these animals and evaluated for IFN-γ production (by ELISA) in response to pericytes and VEC (flow-sorted from day 19 untreated B16 tumors or tumor-uninvolved kidneys of B16-bearing HHD mice), as well as, HLA-A2^+ T2 cells (control or pulsed with the indicated peptides). *p<0.05 versus anti-class I mAb blockade (when evaluating responses against pericytes, VEC or B16 tumor cells) or T2 cells only (when evaluating anti-peptide responses). […]
Evaluation of Specific CD8^+ T Cell Responses in HHD Mice. MACS (Miltenyi Biotec) CD8^+ splenocytes were harvested (from 3 mice/group) 7 days after the second round of DC-based vaccination (i.e. day 21 after tumor inoculation) and analyzed for reactivity against unpulsed T2 cells, TBVA peptide-pulsed T2 cells, or day 19 (flow-sorted) B16-derived PDGFRβ^+CD31^negH-2K^b(neg) pericytes or PDGFRβ^negCD31^+H-2K^b(neg) VEC isolated as previously described (Zhao et al., Mol Ther., 19:805-814, 2011). […] After 48 h, supernatants were analyzed for mIFN-γ content by specific ELISA (BD-Biosciences; lower detection limit=31.3 pg/ml). […]

## LAALPHSCL (listed as Homo sapiens)
  Tc1 recognition of tumor pericytes/VEC by splenic CD8+ T cells of cured mice: clear Tc1 recognition of tumor (but not tumor-uninvolved kidney) pericytes

From US9937250B2, “Immunogenic tumor associated stromal cell antigen peptides and methods of their use” (University of Pittsburgh—Of the Commonwealth System of …, priority 2011, dated 2018)
